Experimental data as given in ChEMBL document CHEMBL5365420, “Kinetics, Thermodynamics, and Structural Effects of Quinoline-2-Carboxylates, Zinc-Binding Inhibitors of New Delhi Metallo-β-lactamase-1 Re-sensitizing Multidrug-Resistant Bacteria for Carbapenems” (J Med Chem, 2023).
One block for each compound: values may come before it.

Key:
[1] = target: T1, 72 kDa type IV collagenase (Homo sapiens, UniProt P08253); test: Inhibition of human recombinant MMP-2 CD using OMNIMMP as substrate incubated for 30 mins by fluorescence based analysis
Target sequence in this assay (P08253 whole entry): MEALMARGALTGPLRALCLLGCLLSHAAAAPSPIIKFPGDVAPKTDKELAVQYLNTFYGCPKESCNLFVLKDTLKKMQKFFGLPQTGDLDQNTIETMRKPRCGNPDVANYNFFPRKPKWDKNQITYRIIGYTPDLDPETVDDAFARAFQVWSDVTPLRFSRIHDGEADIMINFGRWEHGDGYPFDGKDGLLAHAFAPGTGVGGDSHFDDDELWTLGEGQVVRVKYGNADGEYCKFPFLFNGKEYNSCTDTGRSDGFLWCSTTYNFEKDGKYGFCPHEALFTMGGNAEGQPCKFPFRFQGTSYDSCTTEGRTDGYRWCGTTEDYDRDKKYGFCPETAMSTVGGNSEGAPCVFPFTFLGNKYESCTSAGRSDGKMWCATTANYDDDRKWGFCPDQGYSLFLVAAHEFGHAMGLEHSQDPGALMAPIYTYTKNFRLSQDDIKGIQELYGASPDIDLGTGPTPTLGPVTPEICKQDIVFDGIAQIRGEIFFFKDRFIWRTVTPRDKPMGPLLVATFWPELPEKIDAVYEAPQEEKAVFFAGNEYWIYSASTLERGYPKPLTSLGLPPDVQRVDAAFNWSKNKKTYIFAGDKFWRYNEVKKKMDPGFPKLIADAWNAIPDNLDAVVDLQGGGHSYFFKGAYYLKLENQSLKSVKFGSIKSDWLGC

[2] = Inhibition of VIM-2 (unknown origin) incubated for 15 mins by absorbance based microplate reader analysis; set-up: species or system Bacteria
[3] = target: Histone deacetylase 1 (Homo sapiens) (UniProt Q13547); test: Inhibition of C-terminal 6His/FLAG-tagged human recombinant full-length HDAC1 (1 to 482(end) residues) at 10 uM using Boc-Lys-(Ac)-AMC as substrate incubated for 10 mins followed by substrate addition measured after 1 hr by fluorescence based analysis relative to control; settings: time 70.0 min
Histone deacetylase 1 (Homo sapiens), sequence (Q13547 whole entry): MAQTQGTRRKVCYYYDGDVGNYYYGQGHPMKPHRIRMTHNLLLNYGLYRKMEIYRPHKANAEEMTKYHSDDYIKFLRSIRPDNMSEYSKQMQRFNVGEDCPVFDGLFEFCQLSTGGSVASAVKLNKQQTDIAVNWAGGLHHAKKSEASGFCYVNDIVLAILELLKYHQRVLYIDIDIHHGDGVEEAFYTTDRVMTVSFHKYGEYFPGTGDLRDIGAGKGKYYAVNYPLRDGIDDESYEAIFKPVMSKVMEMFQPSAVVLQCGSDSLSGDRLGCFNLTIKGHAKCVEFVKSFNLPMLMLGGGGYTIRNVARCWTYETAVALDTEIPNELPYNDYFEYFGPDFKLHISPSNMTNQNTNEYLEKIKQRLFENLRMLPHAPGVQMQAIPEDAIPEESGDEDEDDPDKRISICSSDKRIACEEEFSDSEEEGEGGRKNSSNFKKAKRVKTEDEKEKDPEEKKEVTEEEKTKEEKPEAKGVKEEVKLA

Klebsiella pneumoniae [4] = test: Antibacterial activity against clinical isolate Klebsiella pneumoniae 50/20 expressing blaNDM-5 co-expressing blaTEM-1 and blaSHV-1 assessed as meropenem MIC at 29.60 uM measured after 20 hrs by broth microdilution assay (reference value: 12 mg/L); assay type: functional; settings: dose 29.6 µM
Escherichia coli [5] = test: Antibacterial activity against clinical isolate Escherichia coli K12 J53-ST10 684/18 expressing blaNDM-1 co-expressing blaCMY-2 and blaOXA-10 assessed as meropenem MIC at 29.60 uM measured after 20 hrs by broth microdilution assay (reference value: 12 mg/L); assay type: functional; settings: dose 29.6 µM
[6] = Inhibition of GIM1 (unknown origin) incubated for 15 mins by absorbance based microplate reader analysis; set-up: species or system Bacteria
Klebsiella pneumoniae [7] = test: Antibacterial activity against clinical isolate Klebsiella pneumoniae ST1493/10 expressing blaNDM-1 co-expressing blaCMY-2like/blaTEM-1/blaCTX-M-15/blaSHV-28/blaOXA-1 and blaOXA-9 assessed as meropenem MIC at 59.20 uM measured after 20 hrs by broth microdilution assay (reference value: 24 mg/L); assay type: functional; settings: dose 59.2 µM
Klebsiella pneumoniae [8] = test: Antibacterial activity against clinical isolate Klebsiella pneumoniae 62/07 expressing blaVIM-19 co-expressing blaSHV-1/blaCTX-M-14 and blaCMY-4 assessed as meropenem MIC at 29.60 uM measured after 20 hrs by broth microdilution assay (reference value: 12 mg/L); assay type: functional; settings: dose 29.6 µM
Escherichia coli [9] = test: Antibacterial activity against clinical isolate Escherichia coli K12 J53-ST10 696/17 expressing blaNDM-1 co-expressing blaCMY-4 assessed as meropenem MIC at 29.60 uM measured after 20 hrs by broth microdilution assay (reference value: 12 mg/L); assay type: functional; settings: dose 29.6 µM
[10] = target: Carbonic anhydrase 2 (Homo sapiens) (UniProt P00918); test: Inhibition of human CA2 at 10 uM using pNPA as substrate preincubated for 15 mins followed by substrate by absorbance based analysis relative to control
Escherichia coli [11] = test: Antibacterial activity against clinical isolate Escherichia coli 371/12 expressing blaNDM-7 co-expressing blaCTX-M-15 and blaOXA-1 assessed as meropenem MIC at 59.20 uM measured after 20 hrs by broth microdilution assay (reference value: 24 mg/L); assay type: functional; settings: dose 59.2 µM
Klebsiella pneumoniae [12] = test: Antibacterial activity against clinical isolate Klebsiella pneumoniae 62/07 expressing blaVIM-19 co-expressing blaSHV-1/blaCTX-M-14 and blaCMY-4 assessed as meropenem MIC at 59.20 uM measured after 20 hrs by broth microdilution assay (reference value: 24 mg/L); assay type: functional; settings: dose 59.2 µM
[13] = Inhibition of IMP-1 (unknown origin) expressed in Escherichia coli BL21-DE3 incubated for 15 mins by absorbance based microplate reader analysis; set-up: species or system Bacteria
Escherichia coli [14] = test: Antibacterial activity against clinical isolate Escherichia coli K12 J53-ST10 618/15 expressing blaNDM-1 assessed as meropenem MIC at 59.20 uM measured after 20 hrs by broth microdilution assay (reference value: 24 mg/L); assay type: functional; settings: dose 59.2 µM
[15] = target: T1, 72 kDa type IV collagenase; test: Binding affinity to human recombinant MMP-2 CD assessed as inhibition constant using OMNIMMP as substrate incubated for 30 mins by fluorescence based analysis
Target sequence in this assay (P08253 whole entry): as the sequence (P08253 whole entry) above

Escherichia coli [16] = test: Antibacterial activity against clinical isolate Escherichia coli K12 J53-ST10 684/18 expressing blaNDM-1 co-expressing blaCMY-2 and blaOXA-10 assessed as meropenem MIC at 59.20 uM measured after 20 hrs by broth microdilution assay (reference value: 24 mg/L); assay type: functional; settings: dose 59.2 µM
Acinetobacter baumannii [17] = test: Antibacterial activity against clinical isolate Acinetobacter baumannii IC 19/09 expressing blaNDM-1 co-expressing blaOXA-64 assessed as meropenem MIC at 59.20 uM measured after 20 hrs by broth microdilution assay (reference value: 24 mg/L); assay type: functional; settings: dose 59.2 µM
Escherichia coli [18] = test: Antibacterial activity against clinical isolate Escherichia coli ST1012/10 expressing blaNDM-1 co-expressing blaTEM-1/blaCTX-M-15/blaOXA-1 and blaOXA-2 assessed as meropenem MIC at 29.60 uM measured after 20 hrs by broth microdilution assay (reference value: 12 mg/L); assay type: functional; settings: dose 29.6 µM
Klebsiella pneumoniae [19] = test: Antibacterial activity against clinical isolate Klebsiella pneumoniae ST23213/19 expressing blaNDM-1 co-expressing blaOXA-48/blaSHV-11/blaCTX-M-15 and blaOXA-1 assessed as meropenem MIC at 59.20 uM measured after 20 hrs by broth microdilution assay (reference value: 24 mg/L); assay type: functional; settings: dose 59.2 µM
Escherichia coli [20] = test: Antibacterial activity against clinical isolate Escherichia coli K12 J53-ST10 696/17 expressing blaNDM-1 co-expressing blaCMY-4 assessed as meropenem MIC at 59.20 uM measured after 20 hrs by broth microdilution assay (reference value: 24 mg/L); assay type: functional; settings: dose 59.2 µM
[21] = target: T1, 72 kDa type IV collagenase; test: Inhibition of human recombinant MMP-2 CD at 10 uM using OMNIMMP as substrate incubated for 30 mins by fluorescence based analysis relative to control
Target sequence in this assay (P08253 110-660 limits assumed): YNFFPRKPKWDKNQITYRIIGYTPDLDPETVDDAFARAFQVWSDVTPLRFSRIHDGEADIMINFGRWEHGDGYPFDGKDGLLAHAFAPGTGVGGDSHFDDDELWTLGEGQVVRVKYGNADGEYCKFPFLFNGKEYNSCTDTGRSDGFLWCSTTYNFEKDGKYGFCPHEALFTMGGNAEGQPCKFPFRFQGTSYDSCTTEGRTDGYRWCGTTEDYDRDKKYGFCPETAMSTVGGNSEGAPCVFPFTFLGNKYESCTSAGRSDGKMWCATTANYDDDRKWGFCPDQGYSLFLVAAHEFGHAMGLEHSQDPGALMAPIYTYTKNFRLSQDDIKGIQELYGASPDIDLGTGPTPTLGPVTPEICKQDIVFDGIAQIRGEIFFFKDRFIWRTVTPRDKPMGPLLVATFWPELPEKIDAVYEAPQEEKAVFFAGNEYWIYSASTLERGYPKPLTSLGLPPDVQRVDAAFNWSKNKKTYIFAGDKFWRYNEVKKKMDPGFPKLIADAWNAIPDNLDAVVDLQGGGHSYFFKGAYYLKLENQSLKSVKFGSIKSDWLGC

Escherichia coli [22] = test: Antibacterial activity against clinical isolate Escherichia coli K12 J53-ST10 618/15 expressing blaNDM-1 assessed as meropenem MIC at 29.60 uM measured after 20 hrs by broth microdilution assay (reference value: 12 mg/L); assay type: functional; settings: dose 29.6 µM
Klebsiella pneumoniae [23] = test: Antibacterial activity against clinical isolate Klebsiella pneumoniae 50/11 expressing blaNDM-1 co-expressing blaTEM-1/blaSHV-28/blaTEM-1/blaCTX-M-15 and blaOXA-1 assessed as meropenem MIC at 59.20 uM measured after 20 hrs by broth microdilution assay (reference value: 24 mg/L); assay type: functional; settings: dose 59.2 µM
Escherichia coli [24] = test: Antibacterial activity against clinical isolate Escherichia coli ST1012/10 expressing blaNDM-1 co-expressing blaTEM-1/blaCTX-M-15/blaOXA-1 and blaOXA-2 assessed as meropenem MIC at 59.20 uM measured after 20 hrs by broth microdilution assay (reference value: 24 mg/L); assay type: functional; settings: dose 59.2 µM
Klebsiella pneumoniae [25] = test: Antibacterial activity against clinical isolate Klebsiella pneumoniae ST1493/10 expressing blaNDM-1 co-expressing blaCMY-2like/blaTEM-1/blaCTX-M-15/blaSHV-28/blaOXA-1 and blaOXA-9 assessed as meropenem MIC at 29.60 uM measured after 20 hrs by broth microdilution assay (reference value: 12 mg/L); assay type: functional; settings: dose 29.6 µM
Klebsiella pneumoniae [26] = test: Antibacterial activity against clinical isolate Klebsiella pneumoniae 50/20 expressing blaNDM-5 co-expressing blaTEM-1 and blaSHV-1 assessed as meropenem MIC at 59.20 uM measured after 20 hrs by broth microdilution assay (reference value: 24 mg/L); assay type: functional; settings: dose 59.2 µM
Klebsiella pneumoniae [27] = test: Antibacterial activity against clinical isolate Klebsiella pneumoniae 50/11 expressing blaNDM-1 co-expressing blaTEM-1/blaSHV-28/blaTEM-1/blaCTX-M-15 and blaOXA-1 assessed as meropenem MIC at 29.60 uM measured after 20 hrs by broth microdilution assay (reference value: 12 mg/L); assay type: functional; settings: dose 29.6 µM
Escherichia coli [28] = test: Antibacterial activity against clinical isolate Escherichia coli K12 J53-ST10 699/15 expressing blaNDM-1 assessed as meropenem MIC at 59.20 uM measured after 20 hrs by broth microdilution assay (reference value: 24 mg/L); assay type: functional; settings: dose 59.2 µM
Acinetobacter baumannii [29] = test: Antibacterial activity against clinical isolate Acinetobacter baumannii IC 19/09 expressing blaNDM-1 co-expressing blaOXA-64 assessed as meropenem MIC at 29.60 uM measured after 20 hrs by broth microdilution assay (reference value: 12 mg/L); assay type: functional; settings: dose 29.6 µM
Escherichia coli [30] = test: Antibacterial activity against clinical isolate Escherichia coli 371/12 expressing blaNDM-7 co-expressing blaCTX-M-15 and blaOXA-1 assessed as meropenem MIC at 29.60 uM measured after 20 hrs by broth microdilution assay (reference value: 12 mg/L); assay type: functional; settings: dose 29.6 µM
Escherichia coli [31] = test: Antibacterial activity against clinical isolate Escherichia coli K12 J53-ST10 699/15 expressing blaNDM-1 assessed as meropenem MIC at 29.60 uM measured after 20 hrs by broth microdilution assay (reference value: 12 mg/L); assay type: functional; settings: dose 29.6 µM
Klebsiella pneumoniae [32] = test: Antibacterial activity against clinical isolate Klebsiella pneumoniae ST23213/19 expressing blaNDM-1 co-expressing blaOXA-48/blaSHV-11/blaCTX-M-15 and blaOXA-1 assessed as meropenem MIC at 29.60 uM measured after 20 hrs by broth microdilution assay (reference value: 12 mg/L); assay type: functional; settings: dose 29.6 µM

IC50 [1]: 0.266 µM
SMILES: O=C(O)[C@H](Cc1ccccc1)NS(=O)(=O)c1ccc(-c2ccccc2)cc1

IC50 [2]: 0.4 µM
inhibition [3]: < 5%
MIC (Klebsiella pneumoniae [4]): 2 µg/mL
MIC (Escherichia coli [5]): 0.5 µg/mL
IC50 [6]: 0.65 µM
MIC (Klebsiella pneumoniae [7]): 1 µg/mL
MIC (Klebsiella pneumoniae [8]): 8 µg/mL
MIC (Escherichia coli [9]): 0.25 µg/mL
inhibition [10]: < 5%
MIC (Escherichia coli [11]): ≤ 0.125 µg/mL
MIC (Klebsiella pneumoniae [12]): 0.25 µg/mL
IC50 [13]: 0.69 µM
MIC (Escherichia coli [14]): ≤ 0.125 µg/mL
Ki [15]: 7.75 µM
MIC (Escherichia coli [16]): ≤ 0.125 µg/mL
MIC (Acinetobacter baumannii [17]): 1 µg/mL
MIC (Escherichia coli [18]): 0.5 µg/mL
MIC (Klebsiella pneumoniae [19]): 16 µg/mL
MIC (Escherichia coli [20]): ≤ 0.125 µg/mL
inhibition [21]: > 90%
MIC (Escherichia coli [22]): ≤ 0.125 µg/mL
MIC (Klebsiella pneumoniae [23]): 0.25 µg/mL
MIC (Escherichia coli [24]): ≤ 0.125 µg/mL
MIC (Klebsiella pneumoniae [25]): 4 µg/mL
MIC (Klebsiella pneumoniae [26]): ≤ 0.125 µg/mL
MIC (Klebsiella pneumoniae [27]): 0.5 µg/mL
MIC (Escherichia coli [28]): ≤ 0.125 µg/mL
MIC (Acinetobacter baumannii [29]): 16 µg/mL
MIC (Escherichia coli [30]): 32 µg/mL
MIC (Escherichia coli [31]): 1 µg/mL
MIC (Klebsiella pneumoniae [32]): 16 µg/mL
SMILES: O=C(O)c1ccc2c(-c3ccccc3)ccc(NS(=O)(=O)c3ccccn3)c2n1
